Test results taken from US6028109A, “Use of agonists of the peroxisome proliferator activated receptor alpha for treating obesity” (Glaxo Wellcome Inc., priority 1996, dated 2000).

Columns and labels:
GST-PPARα = assay: Competition binding for PPARα against the radioligand of Example 2; conditions: 100 nM radioligand of Example 2, 1000-fold excess (100 microM) of competitor; no competitor 40,200 cpm bound
Method: a) Binding of the radioligand of Example 2 to PPARα The ligand binding domains of mouse and human PPARα were expressed in E. Coli as fusion proteins with glutathione-S-transferase (GST). DNA encoding the ligand binding domain of mouse and human PPARa was amplified via polymerase chain reaction and inserted in-frame into the bacterial expression vector pGEX-2T (Pharmacia). GST-mPPARα and GST-hPPARa fusion proteins were expressed in BL21(DE3)plysS cells. After a 2 hour induction with 1 mM IPTG, the cells were lysed by freeze/thaw in 1/10 volumes of a buffer containing 50 mM Tris (pH 8), 250 mM KCl, 10 mM DTT, 1 mM PMSF, and 1% Triton X-100. Lysates were clarified by centrifugation for 1 hr at 50,000 x g. 1.5 ml of a 50% glutathione-sepharose bead (Pharmacia)/phosphate buffered saline slurry was added to 10 ml of clarified lysate, the mixture incubated for 30 minutes, and the glutathione-sepharose bead-GST-PPARα complexes were then collected by centrifugation and washed twice in binding buffer containing 50 mM KCl, 10 mM Tris (pH 8), 1 mM DTT. The washed glutathione-sepharose bead-PPARα complexes were resuspended in 0.75 ml binding buffer containing 10% glycerol. […]

mPPARα = target: T1, mPPARα (Mus musculus, UniProt P23204); assay: Transient cotransfection assay, GAL4-PPARα chimera in CV-1 cells (mouse PPARα); type: cell-based; conditions: transfection assay
T1 construct: amino acids 174-475 of PPARα; expressed in transfected cells; host or cells: CV-1 cells
T1 sequence (P23204 167-468 limits assumed): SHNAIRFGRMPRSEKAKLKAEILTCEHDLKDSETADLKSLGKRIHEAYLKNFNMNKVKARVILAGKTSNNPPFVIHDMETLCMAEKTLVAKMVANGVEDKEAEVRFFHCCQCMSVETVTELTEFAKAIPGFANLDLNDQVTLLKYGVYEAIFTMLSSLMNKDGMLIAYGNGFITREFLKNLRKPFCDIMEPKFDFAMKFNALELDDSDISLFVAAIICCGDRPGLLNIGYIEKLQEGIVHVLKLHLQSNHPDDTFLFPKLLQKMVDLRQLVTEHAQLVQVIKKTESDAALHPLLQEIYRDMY
Excerpt: (§1) A transient cotransfection assay was used to screen for PPARα activator activity of compounds of formula (I).
(§2) As mammalian cell lines contain endogenous nuclear receptors that can complicate interpretation of the results, we used an established chimera system in which the ligand-binding domain of the PPAR-α was fused to the DNA binding domain of the yeast transcription factor GAL4.The GAL4-PPARα chimera was cotransfected into CV-1 cells with a reporter construct containing five copies of the GAL4 binding site upstream of the thymidine kinase promotor driving secreted placental alkaline phosphatase (SPAP) as reporter.
(§3) GAL4-PPAR chimera and UAS-tk-CAT/SPAP reporters. […]
(§4) Transfection assay; SPAP reporter. […] 16 h later the medium was exchanged to DME medium supplemented with 10% delipidated fetal calf serum and the test compound at a concentration of 10^-5 M. After incubation for an additional 24 h SPAP activity and β-galactosidase activity were measured as previously described (Pfahl et al., 1990).
(§5) Transfection assay: CAT reporter. […] After incubation for an additional 24 h, chloramphenicol acetyl transferase (CAT) activity and β-galactosidase activity were measured as previously described (Pfahl et al., 1990). […]

hPPARα = target: T2, hPPARα (Homo sapiens, UniProt Q07869); assay: Transient cotransfection assay, GAL4-PPARα chimera in CV-1 cells (human PPARα); type: cell-based; conditions: transfection assay
T2 construct: amino acids 174-475 of PPARα; expressed in transfected cells; host or cells: CV-1 cells
T2 sequence (Q07869 167-468 limits assumed): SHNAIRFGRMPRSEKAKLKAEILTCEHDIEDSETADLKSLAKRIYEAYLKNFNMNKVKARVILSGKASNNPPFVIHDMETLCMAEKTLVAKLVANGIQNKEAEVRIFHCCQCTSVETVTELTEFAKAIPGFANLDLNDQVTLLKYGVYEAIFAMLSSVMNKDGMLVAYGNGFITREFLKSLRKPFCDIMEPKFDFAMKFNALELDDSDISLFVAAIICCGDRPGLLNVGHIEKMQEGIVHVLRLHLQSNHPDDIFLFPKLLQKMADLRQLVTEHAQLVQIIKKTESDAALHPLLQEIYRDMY
Excerpt: as §1, §2, §3, §4, §5

[1] = Change of body weight in hamsters on 1% cholesterol chow, 14 days oral dosing; type: in vivo, Golden Syrian hamsters; conditions: for change of body weight (gained): diet-only control gained 23.2 g; for change of body weight (lost): Compound B Test, diet-only control gained 13 g
Method: Male Golden Syrian hamsters (supplied by Charles River), weighing approximately 140-150 g at the start of the study, were subjected to the following dietary regime. On day 0, four groups of animals (n=6/group) were begun on a diet consisting of rodent chow containing 1% cholesterol. Three of the four groups on the cholesterol diet also began oral dosing with Compound A as described in Example 3 ([…]). Compound A was given as a suspension in 5% bicarbonate and 0.5% methyicellulose. The study was carried out for 14 days.
The above dietary regime was also carried out with Compound B, but the dosages of Compound B employed were 0.1, 0.5 and 1mglkg/day.
The changes of body weight observed were as follows: […]

CCCCCCCN(CCc1ccc(OC(C)(C)C(=O)O)cc1)C(=O)Nc1ccc(F)cc1 [Compound A, 2-(4[2-(3-[4-fluorophenyl]-1-heptylureido)ethyl]-phenoxy)-2-methylpropionicacid]
cpm bound (GST-PPARα): 18,300 cpm
EC50 (mPPARα): 13 nM
EC50 (hPPARα): 545 nM
change of body weight (gained) ([1]; 0.05 mg/kg/day oral): 20 g
change of body weight (gained) ([1]; 0.1 mg/kg/day oral, Compound A Test): 26.2 g
change of body weight (gained) ([1]; 0.25 mg/kg/day oral): 12.6 g
change of body weight (gained) ([1]; 0.5 mg/kg/day oral, Compound A Test): 3.4 g

CCCCCCCN(CCc1ccc(OC(C)(C)C(=O)O)cc1)C(=O)Nc1ccc(F)cc1F [Compound B, 2-(4-[2-(3-[2,4-difluorophenyl]-1-heptylureido)ethyl]-phenoxy)-2-methylpropionic acid]
cpm bound (GST-PPARα): 13,000 cpm
EC50 (mPPARα): 25 nM
EC50 (hPPARα): 720 nM
change of body weight (lost) ([1]; 0.5 mg/kg/day oral): 12.3 g
change of body weight (lost) ([1]; 1 mg/kg/day oral): 12.4 g
